# Assay results as given in US11306122B2, “Compositions and methods of inhibiting the binding of plasma IgG autoantibodies to serotonin 2A receptor” (United States Government As Represented By The Department …, priority 2019, dated 2022).
# Numbered stars: 1 amine (or outer) side, 2 acyl side, 3 side chain; on linkers, the order of the positions; unused ones are H or OH. Bridge positions count the residues as written; N and C are the ends. Square brackets hold non-standard residues; d marks the D form. Peptide text beside a SMILES is read from it. X1 = CC(=O)NC(C(=O)OC(C(C)C)C(N[*:1])C(=O)[*:2])C(O)C(C)C; PhLac = O=C(O)[CH](O)Cc1ccccc1; NMeT = CN[CH](C(=O)O)[CH](C)O; NMeA = CN[CH](C)C(=O)O; NMeDha = C=C(NC)C(=O)O
# Assays:
# [1] = tested on: mouse N2A neuroblastoma cells; test: Acute N2A neurite retraction induced by TBI patient 5-HT2A receptor autoantibodies; type: cell-based; details: for effect on TBI autoantibody-induced acute neurite retraction: M100907 250-500 nM, Y27632 10 μM, other concentrations as in Table 17; for % of autoantibody Neurite Retraction from TBI patients: 60 nM IgG of representative TBI patient; for effect on neurite retraction in TBI patient autoantibodies, Example 4: 10 μM Y27632, 1 μM YM25489, 1 μM U73122, 50 μM 2-APB; for % of 5-HT2A receptor Autoantibody Neurite Retraction: 60 nM TBI autoantibodies (alone 100%)
# Description: Acute neurite retraction. Mouse N2A neuroblastoma cells were maintained in Dulbecco's minimal essential medium with 10% fetal calf serum. […] Neurite retraction represents average neurite length-shortening after five minutes exposure to TBI (5-HT2A receptor) autoantibodies (60-100 nM) in the presence or absence of various G-protein coupled receptor (GPCR) or signaling pathway antagonists.
# A 60 nanomolar concentration of the IgG autoantibodies (e.g., 5-HT2A receptor autoantibodies) from a representative TBI patient was incubated with N2A cells in the presence or absence of the indicated concentration of the selective GPCR antagonist.
# A 60 nanomolar concentration of 5-HT2A receptor autoantibodies from TBI patients was incubated with N2A cells in the presence or absence of the indicated concentration of Gq11/PLC-gamma/IP3R antagonist or RhoA/Rho kinase pathway inhibitor.
# Neurovascular 5-hydroxytryptamine (serotonin) 2A receptor (5-HT2AR) autoantibodies were previously reported to function as long-acting agonists in diabetic angiopathy and subsets of major depression, Parkinson's disease or dementia. The 5-HT2A receptor is highly expressed in specific brain regions underlying cognition, perception and mood regulation. Long-lasting 5-HT2A receptor activation by circulating autoantibodies might contribute to pathophysiology via central and peripheral mechanisms. Since the risk or incidence of Parkinson's disease, depression and dementia increase following traumatic brain injury (TBI), circulating neurotoxic autoantibodies (e.g., 5HT2AR) were tested, characterized and compared with autoantibodies from TBI patients vs. diabetic subsets with or without neurodegenerative disorders. Plasma IgG autoantibodies (e.g., 5-HT2AR autoantibodies) were obtained by protein-A affinity chromatography in ten male TBI patients mean age 64 years old.
# [2] = tested on: N2A mouse neuroblastoma cells; test: Acute N2A neurite retraction induced by schizophrenia plasma autoantibodies; type: cell-based; details: for % AutoAB-induced neurite retraction: 20 nM Pt 1 schizophrenia AutoAB; for % of AutoAB-induced neurite retraction: 40 nM SCZ IgG (N = 2), alone 100 ± 0%; for effect on schizophrenia autoantibody-induced neurite retraction: M100907 two-hundred nanomolar, Y27632 ten micromolar, Y254890 one micromolar
# Description: (§1) Methods: Plasma from five older adults with chronic schizophrenia and eight age-matched patients having another neuropsychiatric, immune or metabolic disorder was subjected to Protein-A affinity chromatography to obtain IgG autoantibodies. Mean neurite retraction (5 minutes) or cell survival (24 hours) was determined in mouse N2A neuroblastoma cells incubated with autoantibodies in the presence or absence of specific antagonists of the Gq/11/PLC/IP3R signaling pathway, Gi-coupled, beta-arrestin2-directed pathways, or LY379268.
# Acute neurite retraction assay. Percent of basal neurite length in N2A cells expressing one or more proximally-located dendrite-like process was determined after interval exposure to test substances (Zimering M B, J Endocrinol Diabetes. 2018; 5(2): 10).
# A twenty nanomolar concentration of protein-A eluate fraction of plasma from Pt 1 with schizophrenia was incubated with N2A cells in the presence or absence of the indicated concentration of each Gq/11, GPCR antagonist. Results are the mean+/−SD of two experiments.
# A forty nanomolar concentration of plasma autoantibodies (AutoAB) from Pt 1 or Pt, schizophrenia, was incubated in the presence or absence of the indicated concentration of RhoA/Rho kinase (ROCK) inhibitor, or individual antagonists of the Gq11/PLC/IP3R signaling pathway. […]
# [3] = tested on: N2A cells; test: Neurite retraction in N2A cells induced by 5-HT2AR agonists (DOI, serotonin); type: cell-based, mouse
# Excerpt: The mGlu2/3R agonist LY379268 was previously reported to cause positive allosteric modulation of the 5HT2AR protomer affinity at 5HT2AR/mGlu2R heteromers (González-Maeso J, et al., Nature. 2008; 452(7183):93-97).
# [4] = tested on: N2A mouse neuroblastoma cells; test: N2A cell survival (MTT) promoted by schizophrenia/psychosis plasma autoantibodies; type: cell-based; details: LY379268 5 μM, pertussis toxin 100 ng/mL; for effect alone on N2A cell survival: without autoantibodies; for effect on autoantibody-induced N2A pro-survival/proliferation (words): M100907 500 nM, LY294002 20 μM, 24 hours
# Description: as §1
# N2A cell survival. MTT assay was performed 24 hours after incubation with test substances (Zimering M B, J Endocrinol Diabetes. 2018; 5(2): 10).
# Serotonin 2A receptor activation leads to f3-arrestin-2-mediated desensitization and receptor internalization. However, β-arrestin-2 can also couple with diverse signaling pathways leading to enhanced cell proliferation and/or survival promotion.
# [5] = tested on: N2A cells; test: N2A cell loss (MTT) induced by TBI patient autoantibodies; type: cell-based, mouse; details: M100907 250 nM (eight of eight patients); prazosin 850 nM (n=5); one-fiftieth dilution; 24 hours
# Description: Cell survival was determined with MTT assay.
# Mouse neuroblastoma cell loss. N2A cell loss was quantified using an MTT (3-(4,5-dimethylthiazol-2-yl)-2,5-diphenyltetrazolium bromide) tetrazolium reduction assay after overnight incubation with autoantibodies from TBI patients (Zimering M B, Endocrinol Diabetes Metab J. 2019 August; 3(4) pii: 118. Epub 2019 Aug. 14).
# [6] = tested on: mouse N2A neuroblastoma cells; test: Acute N2A neurite retraction induced by diabetic pathologies' IgG autoantibodies; type: cell-based; details: for Mean acute N2a neurite retraction (%): Pt 1 IgG one-fortieth dilution + 20 μg/mL peptide, IgG alone 100 + 0%; for effect on Patient 1 IgG autoantibody-induced N2A neurite retraction: short peptides at 20 μg/mL, pre-incubated 5 minutes, Q..N-18 dose series
# Description: Methods: Plasma or serum from fifty-six older adults with (n=49) or without (n=7) type 2 diabetes was subjected to Protein-A affinity chromatography to obtain IgG autoantibodies. Binding to a synthetic 18-meric linear synthetic peptide (SEQ ID NO: 1) corresponding to the second extracellular loop of the 5-hydroxytryptamine 2A receptor was tested in a 1/40th or higher dilution of the protein-A eluates. Mean acute neurite retraction (5 minutes) or cell survival (16-24 hours) was determined in mouse N2A neuroblastoma cells incubated with IgG autoantibodies in the presence or absence of three short, linear overlapping peptides comprising the second extracellular loop of the human 5-hydroxytryptamine 2A receptor (SEQ ID NOs: 2, 3 and 4).
# N2A Acute Neurite Retraction assay. Acute neurite retraction assay was performed as described in Hu G, et al. Diabetes Care 2007; 30(4): 842-847.
# Epitope mapping of region within 5-HT2A receptor, linear synthetic 5-HT2A receptor peptide targeted by autoantibodies. Next an epitope analysis was performed to determine the subregion within the 5-HT2A receptor second extracellular domain that binds to the type 2 diabetes pathologies' autoantibodies. Three overlapping short peptides were synthesized (SEQ ID NOs: 2, 3, and 4). N2a cells expressing neurites were pre-incubated with each of the peptides separately (for 5 minutes) prior to the addition of Patient 1, […] hypertension IgG autoantibodies to determine which of the three peptides could compete for binding to the test diabetic pathologies' autoantibodies causing inhibition of IgG autoantibody-induced neurite retraction.
# The indicated concentration of the Q . . . […] Acute N2A neurite retraction was assessed after 5 minutes.
# [7] = Patient 1 DM refractory hypertension autoantibody, one sixtieth dilution, 5 minutes, 0 μg/mL peptide: 90 + 5%
compound,measurement,setting,value
COc1ccccc1Oc1c(NS(=O)(=O)c2ccc(C(C)(C)C)cc2)nc(-c2ncccn2)nc1OCCO [Bosentan],effect on TBI autoantibody-induced acute neurite retraction,[1],little or no significant protective effect
same,% of autoantibody Neurite Retraction from TBI patients,[1]; antagonist 10 μM,80%
same,% AutoAB-induced neurite retraction,[2]; antagonist 10 μM,94 ± 7%
"COc1cc(CC(C)N)c(OC)cc1I (centres unmarked) [DOI, 1-[2,5-dimethoxy-4-iodophenyl]-2-aminopropane]",concentration of DOI needed to evoke 25-30% neurite inhibition,[3]; in the absence of LY379268,10 µM
same,concentration of DOI needed to evoke 25-30% neurite inhibition,[3]; in the presence of (10 μM) LY379268,5 µM
same,peak neurite retraction,"[3]; saturating concentration, 20 μM",40%
O=C(c1ccc(F)cc1)C1CCN(CCn2c(=O)[nH]c3ccccc3c2=O)CC1 [Ketanserin],effect on TBI autoantibody-induced acute neurite retraction,[1],substantially blocked
same,% of autoantibody Neurite Retraction from TBI patients,[1]; antagonist 1 μM,26%
same,% of autoantibody Neurite Retraction from TBI patients,[1]; antagonist 2 μM,18%
same,% AutoAB-induced neurite retraction,[2]; antagonist 500 nM,43 ± 11%
N[C@@]1(C(=O)O)CO[C@H]2[C@H](C(=O)O)[C@H]21 [LY379268],mean level of neurite retraction in the presence of LY379268,"[2]; 10 μM LY379268, n=12, IgG alone 52±7%",74±10%
same,effect alone on neurite retraction,"[2]; 5-101.1M concentrations (so in the source), without autoantibodies",no effect
same,"Mean N2A neurite retraction, Pt IgG + LY379268","[2]; 7.5-10 μM LY379268, mean [IgG] 17 ± 6 nM, N = 12 patients, five minutes, Pt IgG alone 52 ± 7%",74 ±10%^∧
same,IgG autoantibody concentration giving 50% inhibition of N2A neurite outgrowth in the presence of LY379268,"[2]; 10 micromolar LY379268, Pt 1 SCZ IgG, without LY379268: one microgram per milliliter (~7 nM)",~0.5 microgram per milliliter
same,"IgG autoantibody concentration giving 50% inhibition of N2A neurite outgrowth in the presence of LY379268, molar","[2]; 10 micromolar LY379268, Pt 1 SCZ IgG, without LY379268 ~7 nM",3.5 nM
same,effect alone on N2A cell survival,[4],no effect
same,effect on autoantibody-induced N2A pro-survival/proliferation (words),[4],significantly blocked
CCCCc1nc(Cl)c(CO)n1Cc1ccc(-c2ccccc2-c2nn[nH]n2)cc1 [Losartan],% AutoAB-induced neurite retraction,[2]; antagonist 10 μM,72 ± 8%
NCCOB(c1ccccc1)c1ccccc1 [Peptide 2-APB],"effect on neurite retraction in TBI patient autoantibodies, Example 4",[1],significantly blocked
same,% of 5-HT2A receptor Autoantibody Neurite Retraction,[1]; inhibitor 25 μM,0%
same,% of AutoAB-induced neurite retraction,[2]; inhibitor 50 μM,17 ± 1.9%
COc1ccc2c(c1)CC[C@@H]1[C@@H]2CC[C@]2(C)[C@@H](NCCCCCCN3C(=O)C=CC3=O)CC[C@@H]12 [Peptide U73122],"effect on neurite retraction in TBI patient autoantibodies, Example 4",[1],significantly blocked
same,% of 5-HT2A receptor Autoantibody Neurite Retraction,[1]; inhibitor 1 μM,10%
same,% of AutoAB-induced neurite retraction,[2]; inhibitor 1 μM,28 ± 15%
C[C@@H](N)[C@H]1CC[C@H](C(=O)Nc2ccncc2)CC1 [Peptide Y27632],effect on schizophrenia autoantibody-induced neurite retraction,[2],completely prevented
same,% of AutoAB-induced neurite retraction,[2]; inhibitor 10 μM,0 ± 0%
COc1cc2nc(N3CCN(C(=O)c4ccco4)CC3)nc(N)c2cc1OC [Prazosin],effect on accelerated N2A cell death/loss by TBI autoantibodies,[5],much less protective effect
same,% AutoAB-induced neurite retraction,[2]; antagonist 1 μM,72 ± 10%
Cc1cc(NC(=O)Nc2ccc3c(ccn3C)c2)sn1 [SB204741],effect on TBI autoantibody-induced acute neurite retraction,[1],no significant protective effect
same,% of autoantibody Neurite Retraction from TBI patients,[1]; antagonist 1 μM,70%
same,% AutoAB-induced neurite retraction,[2]; antagonist 1 μM,100 ± 0%
C=C1C(=O)NC(C)C(=O)N(C)C(C)C(=O)NC(C(OC(=O)C(NC(C)=O)C(O)C(C)C)C(C)C)C(=O)N(C)C(C(C)OC)C(=O)OC(C)C(NC(C)=O)C(=O)OC(Cc2ccccc2)C(=O)N1C (centres unmarked) [YM254890] (Ac-T[PhLac][NMeDha]A[NMeA][X1][NMeT](Me); ester 1-C; configuration not given here),"effect on neurite retraction in TBI patient autoantibodies, Example 4",[1],significantly blocked
same,% of 5-HT2A receptor Autoantibody Neurite Retraction,[1]; inhibitor 1 μM,11%
same,effect on schizophrenia autoantibody-induced neurite retraction,[2],completely prevented
same,% of AutoAB-induced neurite retraction,[2]; inhibitor 1 μM,0 ± 0%
Pertussis toxin,effect alone on N2A cell survival,[4],no effect
same,effect on autoantibody-induced N2A pro-survival/proliferation (words),[4],significantly blocked
same,effect on autoantibody-induced N2A pro-survival/proliferation (words),[4]; listed as pertussis toxin,blocked
"QDDSKVF [Peptide 3, short overlapping peptide of 5-HT2A receptor second extracellular loop]",Mean acute N2a neurite retraction (%),[6]; 5 minutes,87 + 19%
same,effect on Patient 1 IgG autoantibody-induced N2A neurite retraction,[6],no significant effect
QDDSKVFKEGSCLLADDN [Peptide 1],"acute N2A neurite withdrawal, autoantibody + Q...N-18 at 3 μg/mL",[6]; [7],25 + 7%
same,"acute N2A neurite withdrawal, autoantibody + Q...N-18 at 5 μg/mL",[6]; [7],0 + 0%
same,effect on Patient 1 IgG autoantibody-induced N2A neurite retraction,[6],dose-dependently inhibited
same,Half-maximal inhibition of autoantibody-induced acute neurite retraction,[6]; sixty nanomolar protein-A eluate of Patient 1 plasma,2 µg/mL
same,IC50,"[6]; sixty nanomolar protein-A eluate of Patient 1 plasma, read-out: Half-maximal inhibition of autoantibody-induced acute neurite retraction, corresponding molar concentration",~1000 nM
"VFKEGSC [Peptide 4, short overlapping peptide of 5-HT2A receptor second extracellular loop]",Mean acute N2a neurite retraction (%),[6]; 5 minutes,88 + 13%
same,effect on Patient 1 IgG autoantibody-induced N2A neurite retraction,[6],no significant effect
